Experimental data from patent publication US9415030B2 (priority 2008, dated 2016).
Like-named read-outs stand apart in the source and are kept apart here.

Columns and labels:
OCD = assay: Earlier treatments of Subject 1 (SSRIs, atypical neuroleptics, IVIG); type: in vivo, human; details: Subject 1, before glycine treatment
lupus mice = details: fed a lot of arginine in their diet; cited from earlier work
clinical = details: human, in vivo
Description: Hyperammonemia is seen in several abnormal conditions, e.g. inborn errors of metabolism that affect the urea cycle, small bowel syndrome, and others.

[1] = test system: cerebellar granule neurons; details: cultured cerebellar granule neurons; cited from earlier work
[2] = test system: human cerebellar granule neurons; details: cultured cerebellar granule neurons; cited from earlier work
[3] = test system: OCD, BDD, and ADHD symptoms
Description: Although individual symptoms have varied in intensity over time, the basic spectrum of signs and symptoms appears to have been unchanged over 15 years.
Participation in family gatherings has increased.

NMDA co-agonist site = NMDA co-agonist site (Homo sapiens, UniProt Q05586); details: 0.8 g/kg body weight/day; cited from earlier work
cognition = test system: cognition
Description: Available evidence consists of records for formal cognitive testing, school records from pre-kindergarten through college (in progress), SAT scores, including scores on practice tests in an SAT preparation course, and diary-recorded observations made in parental tutoring sessions occurring from first grade through college.
Preparation for the SAT test included a test preparation course that involved practice tests that simulated actual test conditions. […] It should be noted that both official and unofficial SAT tests were taken in the standard time intervals.
No parental tutoring was given and it should be noted that Subject 1 received no special accommodations in this course.
In the course of these explanations, the importance of these facts was strongly emphasized. One and a half months after the course was over, Subject 1 was again queried by their parent on this topic.

[4] = 1 year after initiation of glycine treatment

Fc1ccc([C@@H]2CCNC[C@H]2COc2ccc3c(c2)OCO3)cc1 [Paxil]
response of OCD to treatment (OCD): non-responder

N=C(N)NCCC[C@H](N)C(=O)O [arginine, L-arginine]
survival (lupus mice): die more quickly | concentration at 3 h (clinical): 98 µM | plasma ammonia concentration (clinical): ~94 µM

CC[C@H]1OC(=O)[C@H](C)[C@@H](O[C@H]2C[C@@](C)(OC)[C@@H](O)[C@H](C)O2)[C@H](C)[C@@H](O[C@@H]2O[C@H](C)C[C@H](N(C)C)[C@H]2O)[C@](C)(OC)C[C@@H](C)C(=O)[C@H](C)[C@@H](O)[C@]1(C)O [clarithromycin]
NMDA receptor mediated excitotoxic cell death [1]: inhibited NMDA receptor mediated excitotoxic cell death | kainate-mediated excitotoxicity [2]: not kainate-mediated excitotoxicity

glycine
intolerance of mirrors [3, 4]: reduced intolerance of mirrors | perseverative behavior during taxi rides [3, 4]: much reduced | decline on glycine cessation ([3]; 6 week cessation with no infection): little or no decline | BDD signs and symptoms after glycine cessation ([3]; 9 month cessation begun May 2006): clear increase in BDD signs and symptoms | line crossing obsession ([3]; Subject 1, during glycine treatment): no signs of the line crossing obsession | time to first behavioral improvement after initiation of glycine treatment ([3]; Subject 1, parent's report): about three | recovery of gains after glycine resumption ([3]; over three months after resumption): previous gains were largely recovered | BDD signs and symptoms ([3]; periods of sustained glycine treatment): continued to improve | NMDA activity (NMDA co-agonist site): moderately enhanced NMDA activity | college algebra test scores (cognition; 10 and 14 weeks after glycine cessation): low 90% range | college algebra test scores (cognition; 21 and 26 weeks after glycine cessation): low 80% range | improvement of SAT scores during Kaplan preparation course (cognition; course begun six months after starting glycine): approximately 250 points | cognition (cognition; high-dose glycine treatment): cognition improved | memory consolidation and/or retrieval (cognition; nine months after glycine cessation): return of difficulties in memory consolidation and/or retrieval | SAT math score, official test (cognition; sustained glycine treatment): 520 | SAT math score, practice test 1 (cognition; sustained glycine treatment): 390 | SAT math score, practice test 2 (cognition; sustained glycine treatment): 460 | SAT math score, practice test 3 (cognition; sustained glycine treatment): 490 | SAT verbal score, official test (cognition; sustained glycine treatment): 660 | SAT verbal score, practice test 1 (cognition; sustained glycine treatment): 540 | SAT verbal score, practice test 2 (cognition; sustained glycine treatment): 540 | SAT verbal score, practice test 3 (cognition; sustained glycine treatment): 600 | percentile of official SAT verbal score (cognition; sustained glycine treatment): 90 percentile
